From patent publication US7758856B2, “Bacteriophage for the treatment of bacterial biofilms” (Biocontrol Limited, priority 2003, dated 2010)
≈ marks a conversion by molar mass, not a printed value.

Experiments:
[1] = tested on: Ps. aeruginosa; experiment: Minimal inhibition concentration of tobramycin; type: cell-based; details: Pseudomonas aeruginosa
[2] = CF patients, nebulisation twice a day (tobramycin 80 mg; Colistin 2 mega units); cited from earlier work
[3] = tested on: Ps. aeruginosa GH56 biofilms; experiment: In vitro biofilm model (chemostat and Robbins device, viable counts on PVC disks)
Method: Each port allows insertion of a sampling stud that contains a polyvinyl chloride (PVC) disk that lies flush to the upper surface of the lumen. The continuous culture is pumped through the Robbins device and biofilms are formed on the surface of PVC disks exposed to the culture.
A 10-ml aliquot of an 18 hour culture of Pseudomonas aeruginosa, at approximately 10^8 cfu per ml, was used to inoculate the sterile growth media within the chemostat. The inocula was introduced into the chemostat through the sample port in the top plate. • ii. Following inoculation, the chemostat was operated as a batch culture for 4 h to allow establishment of the culture. • iii. Medium addition (½ strength nutrient broth, Oxoid) was commenced at the desired flow rate (1 ml per min) and the effluent pump was activated. The flow rate of the effluent pump was the same as the inflow pump. The effluent tubing bypassed the Robbins devices leading straight to the main waste reservoir. • iv. The continuous chemostat was run for a predetermined time until a steady state was attained (96-hours). At this stage, the tubes leading to the Robbins devices were positioned onto the multi-head pump, thus instigating culture flow through the Robbins devices. • v. […] The medium, effluent and culture volumes were recorded on the run sheet and the flow rates calculated accordingly. […]

Row | Compound | MIC [1] | serum levels [2] | effect on Ps. aeruginosa sessile (biofilm) population ([3]; four applications at MIC (4 mg L^-1), over 24 h / 48 h) | effect on biofilm viability / sessile population ([3]; tobramycin at 10xMIC, four applications)
1 | NC[C@H]1O[C@H](O[C@H]2[C@H](O)[C@@H](O[C@H]3O[C@H](CO)[C@@H](O)[C@H](N)[C@H]3O)[C@H](N)C[C@@H]2N)[C@H](N)C[C@@H]1O [tobramycin] | 4 µg/mL (≈ 8.56 µM) | unmeasurable | no significant effect | no significant effect
2 | Colistin | – | unmeasurable | – | –
